Here are results for 7 compounds from US7666670B2, “Animal model for the fast identification of pharmaceutical active compounds in vivo” (Janssen Pharmaceutica N.V., priority 2003, dated 2010).

Several values for one entry are separate records, joined by “and”; a condition that tells them apart may be missing. Identical values can stand only once. *1 amine or outer side, *2 acyl side, *3 side chain or, on linkers, in order; H or OH if unused. Where a SMILES comes first, the peptide text is derived from it. Bridges are numbered along the chain shown (N, C = ends). Roman numbers before positions name the chains, in order. [ ]: non-standard residue; d: D form. Actinocin(9to1) = Cc1c2oc3c(C)ccc(C(=O)[*:1])c3nc-2c(C(=O)[*:2])c(N)c1=O; NMeV = CN[C@H](C(=O)O)C(C)C; Sar = CNCC(=O)O

For series [1], the system named is p21 1300 bp promoter fragment. In words: Induction of p21 1300 bp promoter fragment (ZsGreen fluorescence) in pGL3-basic-ZsGreen-1300 transfected A2780 clones. The format is cell-based, human. Particulars: for Fold induction (fluorescence after induction divided by fluorescence of DMSO treated cells) / Activation of the 1300 bp fragment of the p21 promoter by DNA damaging agents: 24 h; for Fold induction (fluorescence after induction divided by fluorescence of DMSO treated cells): Fluoroskan; for Fold induction: first screen of 80 clones, the two clones measurable with Fluoroskan; for Activation of the 1300 bp fragment of the p21 promoter by DNA damaging agents: dose response, clones 1 and 5 (FIG. 1). As for the experimental part:
A2780 cells were plated into a 6-well plate at a density of 2×10^5 cells, incubated for 24 hours, and transfected with 2 ug of pGL3-basic-ZsGreen-1300 and 0.2 ug of pSV2neo vector by using Lipofectamine 2000 (Invitrogen, Brussels, Belgium) as described by manufacturer. The transfected cells were selected for 10 days with G418 (Gibco-BRL, Gaithersburg, Md.) and single cell suspensions were grown. After three weeks, 80 single clones were obtained.
The A2780 transfected pool and the selected 80 clones were expanded and seeded at 10000 cells per well into 96-well plates. 24 hours after seeding, the cells were treated for an additional 24 hours with targeted compounds (affecting sp1 sites in the proximal p21 promoter region) or DNA damaging agents (affecting p53 responsive elements). Subsequently, cells were fixed with 4% PFA for 30′ and counterstained with Hoechst dye. The p21 promoter activation leading to ZsGreen production and thus fluorescence, was monitored by the Ascent Fluoroskan (Thermo Labsystems, Brussels, Belgium) and by fluorescence microscope (Zeiss).

The subject of series [2] is pGL3-basic-ZsGreen-1300 transfected A2780 xenograft. Description: In vivo xenograft fluorescence, Automated Whole Body Imaging System. Details: species or system nude mice. As for the experimental part:
The selected clone was injected subcutaneous (10^7 cells/200 μl) into the flank of nude mice and a calliper measurable tumor was obtained after 12 days. From day 12 on, animals were orally dosed daily during 6 days with solvent, 20 mpk Mitsui (a.k.a. MS-275—Shering—Registry Number 209783-80-2) or 40 mpk compound X (10, 10 and 4 animals respectively). Tumors were evaluated for fluorescence by the in-house developed Automated Whole Body Imaging System (Fluorescent stereomicroscope type Olympus® SZX12 equipped with a GFP filter and coupled to a CCD camera type JAI® CV-M90 controlled by a software package based on the IMAQ Vision Software from National Instruments®).

Another series deals with tumor. Particulars: PK/PD studies; cited from earlier work.
The test system of the next series is p53RE_tk in A2780 cells. In words: Induction of p53RE_tk activity (ZsGreen fluorescence) in transfected A2780 clones. The format is cell-based, human. Particulars: 24 h, Fluoroskan; for Fold induction (fluorescence after induction divided by fluorescence of DMSO treated cells): A2780 clone 36, 10 ng/ml. As for the experimental part:
(§1) A2780 cells and HCT116 cells were plated into a 6-well plate at a density of 4×10^5 cells, incubated for 24 hours, and transfected with 2 ug of p53RE_TK/pGL3-basic-ZsGreen and 0.2 ug of pMC1-neo-Poly A vector by using Lipofectamine and Plus Reagent (Invitrogen, Brussels, Belgium) as described by manufacturer. The transfected cells were selected for 16 days with G418 (Gibco-BRL, Gaithersburg, Md.) and single cell suspensions were grown. After three weeks, 60 single clones were obtained from the transfected HCT116 cells and 40 single clones were obtained from the transfected A2780 cells.
(§2) The A2780 and the HCT116 transfected pool and the selected clones were expanded and seeded at 20000 cells per well into 96-well plates. 24 hours after seeding, the cells were treated for an additional 24 hours with DNA damaging agents (affecting p53 responsive elements). The p53RE_tk activation leading to ZsGreen production and thus fluorescence, was monitored by the Ascent Fluoroskan (Thermo Labsystems, Brussels, Belgium) and by fluorescence microscope (Zeiss).

For the next series, the system named is p53RE_tk in HCT116 cells. Description: Induction of p53RE_tk activity (ZsGreen fluorescence) in transfected HCT116 clones. The format is cell-based. Particulars: 24 h. As for the experimental part:
as §1, §2

Where [3] appears, read: 20 mpk orally daily for 6 days from day 12, clone 1 and 5 xenograft, nude mice.

For the compound `Nc1ccccc1NC(=O)c1ccc(CNC(=O)OCc2cccnc2)cc1` [Mitsui], the “Fold induction (fluorescence after induction divided by fluorescence of DMSO treated cells)” value in series [1] (clone 1, 10^−6M) was 2 fold and 1.8 fold. Besides, in series [1] (10^−6, 24 h), the Fold induction is listed as 1.2-1.5 fold. Besides, the “ZsGreen production in pGL3-basic-ZsGreen-1300 transfected A2780 cells in vitro” value (“ZsGreen production” below) in series [1] was “induce ZsGreen production”. Also, in series [2] (setting [3]), the “Time after administration of the first dose at which induction of ZsGreen was very clear” value turned out to be 3 days and the “Time after starting the treatment at which ZsGreen induction reached a plateau” value was 5 days. Besides, in series [2] (20 mpk, clone 2 and 3 xenograft, nude mice), the “Basal ZsGreen expression and induction, detection by Automated Whole Body Imaging System” value is listed as “too low”. Moreover, the “Induction of fluorescence in the xenograft” value in series [2] (after 4 days of treatment) was “induces fluorescence”. Also, in the series with tumor, the “Compound reaches the tumor” value is recorded as “can reach the tumor” and the “Concentration reached in the tumor” value is recorded as “high enough to stop the tumor from growing”.

With `O=C(CCCCCCC(=O)Nc1ccccc1)NO` [SAHA, suberoylanilide hydroxamic acid], the “ZsGreen production” value in series [1] is on record as “induce ZsGreen production”.

With `COc1cccc2c1C(=O)c1c(O)c3c(c(O)c1C2=O)C[C@@](O)(C(=O)CO)C[C@@H]3O[C@H]1C[C@H](N)[C@H](O)[C@H](C)O1` [Doxorubicin], the “Activation of the 1300 bp fragment of the p21 promoter by DNA damaging agents” value (from here on “Activation”) in series [1] is listed as “not able to activate”; in series [1] (listed as doxorubicin), “non-responsivness”.

`CC(/C=C/C(=O)NO)=C\[C@@H](C)C(=O)c1ccc(N(C)C)cc1` [TSA, trichostatin A]: the “Fold induction (fluorescence after induction divided by fluorescence of DMSO treated cells)” value in series [1] (clone 1, 10^−7M) is recorded as 5 fold. Besides, the Fold induction in series [1] (10^−7, 24 h) is listed as 5 fold. In addition, the “ZsGreen production” value in series [1] is “induce ZsGreen production”.

For `CC[C@@]1(O)C(=O)OCc2c1cc1n(c2=O)Cc2cc3ccccc3nc2-1` [Camptothecin], the results for the “Activation” value in series [1] and in series [1] (listed as Campthotecin) were “not able to activate” and “non-responsivness”, respectively.

For `Cc1c2oc3c(C)ccc(C(=O)N[C@@H]4C(=O)N[C@H](C(C)C)C(=O)N5CCC[C@H]5C(=O)N(C)CC(=O)N(C)[C@@H](C(C)C)C(=O)O[C@@H]4C)c3nc-2c(C(=O)N[C@@H]2C(=O)N[C@H](C(C)C)C(=O)N3CCC[C@H]3C(=O)N(C)CC(=O)N(C)[C@@H](C(C)C)C(=O)O[C@@H]2C)c(N)c1=O` [actinomycin D] (I: T[dV]P[Sar][NMeV] / II: T[dV]P[Sar][NMeV]; ester I:1-I:C, II:1-II:C; linker I:N-II:N via Actinocin(9to1)), the “Fold induction (fluorescence after induction divided by fluorescence of DMSO treated cells)” value in the series with p53RE_tk in A2780 cells is 2 fold; in the series on p53RE_tk in A2780 cells (listed as actinomycinD), “strong induction factor”. Moreover, the Induction of fluorescence entry in the series with p53RE_tk in A2780 cells (the 2 responding A2780 clones, 10 ng/ml) is listed as “at least a two fold induction”; in the series with p53RE_tk in HCT116 cells (HCT116 clones 5 and 36, 10 ng/ml), “strong induction factor”; in the series with p53RE_tk in HCT116 cells (the 6 responding HCT116 clones, 10 ng/ml, Fluoroskan) it was “at least a two fold induction”.

Regarding Bleomycin, the “Activation” value is given as “not able to activate” in series [1] and “non-responsivness” in series [1] (listed as bleomycin).
